The values that follow come from patent US10584129B2, “Substituted 6,7-dihydropyrazolo[1,5-a]pyrazines as negative allosteric modulators of mGluR2 receptors” (Janssen Pharmaceutica NV, priority 2013, dated 2020).

Each structure is given as a SMILES string.

The ED50 is the dose at which the effect has come halfway, by size or by number of responders.

The subject of the first assay is Wiga rats. Description: Reserpine interaction test in rats. It is filed as in vivo, rat. The settings on record: PO, Time 60, reserpine 10 mg/kg SC, -1 h.
Regarding `Cc1cc(-c2cnn3c2C(=O)N(c2ccc(C(F)(F)F)cc2)CC3(C)C)ccn1` [compound 171], the ED50 reversal of reserpine-induced ptosis came out at 5 mg/kg.

The same assay, now with this note: Rattus norvegicus, PO, Time 60, reserpine 10 mg/kg SC, -1 h, read-out: ED50 reversal of reserpine-induced ptosis.
As to `CNc1cc(-c2cnn3c2C(=O)N(c2ccc(C(F)(F)F)cc2)C[C@@H]3C)ccn1` [compound 147], the 50% effective dose (ED50) worked out at 7.94 mg/kg.

For `COc1cc(Cl)ccc1N1CC(C)n2ncc(-c3ccnc(C)c3)c2C1=O` (stereo not shown) [compound 161], the ED50 came out at 3.15 mg/kg. On the same count and under the same terms, with `Cc1cc(-c2cnn3c2C(=O)N(c2ccc(Cl)cc2Cl)C[C@@H]3C)ccn1` [compound 167] the figure was 0.1 mg/kg; with `Cc1cc(-c2cnn3c2C(=O)N(c2ccc(Cl)cc2C)CC3C)ccn1` (stereo not shown) [compound 172], 1.26 mg/kg. For the molecule `Cc1cc(-c2cnn3c2C(=O)N(c2ccc(C(F)(F)F)cn2)CC3C)cc(C)n1` (stereo not shown) [compound 194], the ED50 amounted to 5 mg/kg. Same read-out and setting: the result for `CCOc1ccc(Cl)c(N2CC(C)n3ncc(-c4ccnc(C)c4)c3C2=O)n1` (stereo not shown) [compound 195] reads 1.25 mg/kg.
